Patent US11912794B2, “Modulation of structured polypeptide specificity” (BicycleRD Limited, priority 2011, dated 2024)
Numbered stars: 1 amine (or outer) side, 2 acyl side, 3 side chain; on linkers, the order of the positions; unused ones are H or OH. Bridge positions count the residues as written; N and C are the ends. Peptide text beside a SMILES is read from it. TBMB = c1c(C[*:1])cc(C[*:3])cc1C[*:2]

Columns and labels:
Human factor XIa (hfXIa) = Human factor XIa (hfXIa) (Homo sapiens, UniProt P03951); conditions: highest concentration tested (10 μM); Heinis et al. 2009; cited from earlier work
human plasma Kallikrein = molecular target: T1, human plasma Kallikrein (Homo sapiens, UniProt P03952); assay: Functional enzyme inhibition assay, fluorogenic substrate Z-PheArg-AMC; type: biochemical
T1 construct: purchased Stratech, UK

rat plasma Kallikrein [1] = molecular target: T2, rat plasma Kallikrein (Rattus norvegicus, UniProt P14272); conditions: highest concentration tested (10 μM); Heinis et al. 2009; cited from earlier work
T2 construct: polyhistidine tag with proTEV cleavage site (pro-peptide) (N, cleaved yes); made in house; host or cells: HEK-293 (suspension-adapted)

[2] = molecular target: Monkey plasma Kallikrein (mPK) (Macaca mulatta, UniProt A0A1D5Q7U7); assay: Target specificity, Ki for orthologous protease; type: biochemical
Human thrombin = Human thrombin (Homo sapiens, UniProt P00734); conditions: highest concentration tested (10 μM); Heinis et al. 2009; cited from earlier work
rat plasma Kallikrein [3] = molecular target: T2, rat plasma Kallikrein; assay: Functional enzyme inhibition assay, fluorogenic substrate Z-PheArg-AMC; type: biochemical

Sequence of Monkey plasma Kallikrein (mPK) (A0A1D5Q7U7 391-638): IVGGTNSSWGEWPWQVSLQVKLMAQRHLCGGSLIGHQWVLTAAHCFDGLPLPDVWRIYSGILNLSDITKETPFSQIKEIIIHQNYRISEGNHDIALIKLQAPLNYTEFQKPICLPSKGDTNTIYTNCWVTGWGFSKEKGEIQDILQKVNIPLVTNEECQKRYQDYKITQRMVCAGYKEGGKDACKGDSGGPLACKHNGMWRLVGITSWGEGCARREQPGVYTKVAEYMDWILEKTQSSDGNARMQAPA
T2 sequence (P14272 391-638 limits assumed): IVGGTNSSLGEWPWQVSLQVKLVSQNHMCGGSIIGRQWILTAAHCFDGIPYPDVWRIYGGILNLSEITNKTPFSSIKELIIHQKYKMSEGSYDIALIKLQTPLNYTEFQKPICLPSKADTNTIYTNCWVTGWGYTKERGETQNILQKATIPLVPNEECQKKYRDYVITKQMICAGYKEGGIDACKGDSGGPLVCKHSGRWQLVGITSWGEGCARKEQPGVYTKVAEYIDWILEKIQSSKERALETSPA
T1 sequence (P03952 20-638): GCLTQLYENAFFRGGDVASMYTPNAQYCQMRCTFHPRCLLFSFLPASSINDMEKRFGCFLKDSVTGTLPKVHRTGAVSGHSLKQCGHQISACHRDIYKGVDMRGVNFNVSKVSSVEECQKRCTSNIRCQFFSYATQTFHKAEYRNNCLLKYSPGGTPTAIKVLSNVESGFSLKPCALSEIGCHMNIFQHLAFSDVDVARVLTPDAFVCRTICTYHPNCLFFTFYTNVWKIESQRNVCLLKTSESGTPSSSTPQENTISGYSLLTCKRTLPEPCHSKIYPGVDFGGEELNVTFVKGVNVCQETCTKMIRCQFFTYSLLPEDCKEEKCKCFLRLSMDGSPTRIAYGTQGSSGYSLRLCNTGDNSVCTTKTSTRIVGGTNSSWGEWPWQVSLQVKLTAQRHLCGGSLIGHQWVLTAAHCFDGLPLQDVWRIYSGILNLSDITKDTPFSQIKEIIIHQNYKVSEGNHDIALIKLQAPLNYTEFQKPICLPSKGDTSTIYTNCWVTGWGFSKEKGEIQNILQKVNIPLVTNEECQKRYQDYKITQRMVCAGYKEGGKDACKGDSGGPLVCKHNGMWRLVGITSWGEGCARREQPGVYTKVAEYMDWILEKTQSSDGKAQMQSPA
Sequence of Human factor XIa (hfXIa) (P03951 388-625 limits assumed): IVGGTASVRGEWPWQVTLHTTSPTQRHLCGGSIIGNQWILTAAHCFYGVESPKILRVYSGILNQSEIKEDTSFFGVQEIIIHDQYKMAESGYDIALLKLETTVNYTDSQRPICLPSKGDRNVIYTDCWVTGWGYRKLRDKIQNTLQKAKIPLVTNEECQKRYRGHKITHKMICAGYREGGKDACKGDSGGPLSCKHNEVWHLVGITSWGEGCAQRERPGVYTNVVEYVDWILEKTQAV
Sequence of Human factor XIa (hfXIa) (P03951 19-387 partner limits assumed): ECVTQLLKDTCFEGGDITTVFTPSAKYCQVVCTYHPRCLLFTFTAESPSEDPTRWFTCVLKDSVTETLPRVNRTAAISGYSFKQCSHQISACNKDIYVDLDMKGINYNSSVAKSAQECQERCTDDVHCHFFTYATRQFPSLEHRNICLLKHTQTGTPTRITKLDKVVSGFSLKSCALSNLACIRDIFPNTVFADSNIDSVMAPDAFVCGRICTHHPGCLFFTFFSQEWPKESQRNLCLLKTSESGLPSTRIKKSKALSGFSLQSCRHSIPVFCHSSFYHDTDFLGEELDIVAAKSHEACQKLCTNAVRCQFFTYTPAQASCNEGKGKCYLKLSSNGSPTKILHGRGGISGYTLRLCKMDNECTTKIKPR

Compound	Ki [2]	IC50 (rat plasma Kallikrein [3])	other results
CC(C)C[C@@H]1NC(=O)[C@H](C)NC(=O)[C@H](CCC(=O)O)NC(=O)[C@H](CC(=O)O)NC(=O)[C@H](C)NC(=O)[C@@H]2CCCN2C(=O)[C@@H]2CSCc3cc(cc(c3)CSC[C@@H](C(=O)NCC(N)=O)NC1=O)CSC[C@H](NC(=O)[C@H](C)N)C(=O)N[C@@H](CO)C(=O)N[C@@H](CC(=O)O)C(=O)N[C@@H](CCCNC(=N)N)C(=O)N[C@@H](Cc1ccccc1)C(=O)N[C@@H](CCCNC(=N)N)C(=O)N[C@@H](CC(N)=O)C(=O)N2 [PK15] (H-ACSDRFRNCPADEALCG-NH2; linker 2-9-16 via TBMB)	4 nM	–	inhibition of human factor XIa (hfXIa) (Human factor XIa (hfXIa)): did not inhibit; Ki (human plasma Kallikrein; Ki Human plasma kalikrein (hPK), Table 1, means of at least two measurements): 3 nM; inhibition of rat PK (rat plasma Kallikrein [1]): did not inhibit; inhibition of thrombin (Human thrombin): did not inhibit
CC(C)[C@@H]1NC(=O)[C@H](CCCNC(=N)N)NC(=O)[C@@H]2CSCc3cc(cc(c3)CSC[C@@H](C(=O)N[C@@H](C)C(N)=O)NC(=O)[C@H](CC(N)=O)NC1=O)CSC[C@H](NC(=O)[C@H](C)N)C(=O)N[C@@H](Cc1ccccc1)C(=O)N[C@@H](CCCCN)C(=O)N[C@@H](C)C(=O)N2 [Peptide 3B3]	11 nM	–	–
CSCC[C@@H]1NC(=O)[C@@H]2CSCc3cc(cc(c3)CSC[C@@H](C(=O)N[C@@H](C)C(N)=O)NC(=O)[C@H](CC(C)C)NC(=O)[C@H](CC(=O)O)NC(=O)[C@H](CCC(N)=O)NC(=O)[C@H](Cc3c[nH]cn3)NC1=O)CSC[C@H](NC(=O)[C@H](C)N)C(=O)N[C@@H](CCCNC(=N)N)C(=O)N[C@@H](Cc1c[nH]c3ccccc13)C(=O)N1CCC[C@H]1C(=O)N[C@@H](C)C(=O)N[C@@H](CCCNC(=N)N)C(=O)N2 [Peptide 06-34-04] (H-ACRWPARCMHQDLCA-NH2; linker 2-8-14 via TBMB; N-terminus and C-terminus assumed)	–	0.56 nM	–
CC(C)C[C@@H]1NC(=O)[C@H](CC(=O)O)NC(=O)[C@H](CCC(N)=O)NC(=O)[C@H](Cc2c[nH]cn2)NC(=O)[C@H](CC(C)C)NC(=O)[C@@H]2CSCc3cc(cc(c3)CSC[C@@H](C(=O)N[C@@H](C)C(N)=O)NC1=O)CSC[C@H](NC(=O)[C@H](C)N)C(=O)N[C@@H](CO)C(=O)N[C@@H](Cc1c[nH]c3ccccc13)C(=O)N1CCC[C@H]1C(=O)N[C@@H](C)C(=O)N[C@@H](CCCNC(=N)N)C(=O)N2 [Peptide 06-34-18] (H-ACSWPARCLHQDLCA-NH2; linker 2-8-14 via TBMB)	–	0.56 nM	IC50 (human plasma Kallikrein): 0.07 nM
C[C@H](N)C(=O)N[C@H]1CSCc2cc3cc(c2)CSC[C@H](NC(=O)[C@H](CCCNC(=N)N)NC(=O)[C@H](C)NC(=O)[C@@H]2CCCN2C(=O)[C@H](Cc2c[nH]c4ccccc24)NC(=O)[C@H](CCCNC(=N)N)NC1=O)C(=O)N[C@@H]([C@@H](C)O)C(=O)N[C@@H](Cc1c[nH]cn1)C(=O)N[C@@H](CCC(N)=O)C(=O)N[C@@H](CC(N)=O)C(=O)N[C@@H](Cc1ccc(O)cc1)C(=O)N[C@H](C(=O)N[C@@H](C)C(N)=O)CSC3 [Peptide 06-54] (H-ACRWPARCTHQNYCA-NH2; linker 2-8-14 via TBMB; N-terminus and C-terminus assumed)	6 nM	–	–
